Assay results as given in paper PMC9714921 (PLOS Pathogens, 2022).
Where “and” joins values, the source holds several entries; their conditions need not be identical. Equal values may be shown once. Where a name gives a salt, the structure may show the parent alone. Read-outs that look alike come from different tables or passages of the source.

Tests used:
Asu-ACR-16 = Asu-ACR-16 (Ascaris suum, UniProt F1KYJ9); experiment: cell-based; assay type: cell-based
Experimental: (§1) cRNA for oocyte injection was prepared with the mMESSAGE mMACHINE T7 kit following manufacturers protocol (Ambion, USA). Concentration was determined using a Nanodrop spectrophotometer. Desired subunit combinations with associated accessory proteins were mixed and diluted with nuclease-free water to a final concentration of 250 ng/uL for each construct.
(§2) Adult female X. laevis oocyte extraction was performed in accordance with the McGill University Animal Use Protocol 2015–7758 following standard protocol. Briefly, frog ovary lobes were placed in a Ca^2+-free OR2 solution (82 mM NaCl, 2 mM KCl, 1 mM MgCl2, 5 mM HEPES buffer, pH 7.3) and manually divided into clusters of <10 oocytes with thin tweezers followed by a 90-minute incubation in 10 mg/mL collagenase type II (Sigma-Aldrich, USA). Oocytes were washed in Ca^2+-free OR2 and placed ND96 solution (NaCl 96 mM, KCl 2 mM, CaCl2 1.8 mM, MgCl2 1 mM and HEPES 5 mM, pH 7.3) supplemented with sodium pyruvate 2.5 mM [86] and incubated at 18°C until cRNA injection. Oocytes were injected with 50 nL (12.5 ng of each injected gene) of the desired cRNA subunit and accessory protein combination mix with the NanojectII (Drummond Scientific, USA). Following injection, oocytes were incubated in ND96 buffer at 18°C until electrophysiology. All electrophysiology was conducted two days post-injection, except for the expression analysis assay in which oocytes were measured every day after injection for three consecutive days.
(§3) All drugs were dissolved in recording solution (NaCl 100 mM, KCl 2.5 mM, CaCl2 1 mM, HEPES 5 mM, pH 7.3) to a stock concentration of 10 mM and diluted to their final recording concentrations. Oxantel and bephenium were first dissolved in DMSO to ensure a final recording concentration contained less than 0.1% DMSO. For agonist profiling, all drugs were diluted to a concentration of 100 μM.
(§4) Oocytes were placed individually in an RC3Z chamber (Harvard Apparatus, USA) submerged in recording solution (NaCl 100 mM, KCl 2.5 mM, CaCl2 1 mM, HEPES 5 mM, pH 7.3). The RC3Z chamber was connected to a perfusion system containing recording solution and ligand solutions. Pulled glass capillaries (World Precision Instruments, USA) were filled with 3M KCl and the tips clipped and checked for appropriate resistance (between 0.5 and 5 MΩ). A 3M KCl agar bridge grounded the oocyte bath chamber. Measurements were made using an Axon Axoclamp 900A amplifier with Digidata1550M. […] Ligand solutions were applied to the oocytes with an approximate flow rate of 1.2 m/s and current responses measured. Oocytes were exposed to the ligand solution until a distinct current peak was observed followed by a wash with the recording solution until current returned to baseline for a minimum of 10 seconds until the next ligand exposure. For BAPTA-AM exposed oocytes, oocytes were incubated in 100 μM BAPTA-AM for four hours prior to electrophysiology recording. Data was analyzed using Clampex 9.2 (Axon Instruments, USA) and statistical analysis and graphs produced in Prism (GraphPad version 9.1). T-tests were used to compare responses with error bars representing standard error. For concentration-response curves, individual oocyte current response to the different ligand concentrations were normalized to the response obtained with 300 μM. Data was fit using the Graphpad “log(agonist) vs normalized response–variable slope” equation, with 95% confidence intervals being reported. […] For examples of oocyte responses, recordings were filtered in Clampfit using the lowband pass at 40 Hz cutoff.

Dme-ACR-16 = Dme-ACR-16 (Dracunculus medinensis, UniProt A0A0N4U0T6); experiment: cell-based; assay type: cell-based
Experimental: as §1, §2, §3, §4

Tzc-ACR-16 = Tzc-ACR-16 (Thelazia callipaeda, UniProt A0A158RD20); experiment: cell-based; assay type: cell-based
Experimental: as §1, §2, §3, §4

Gpu-ACR-16 = experiment: Voltage-clamp electrophysiology, N-AChR reconstituted in Xenopus laevis oocytes; assay type: cell-based, Gonglyonema pulchrum; settings: for response to 100 μM ligand relative to 100 μM ACh (in words): agonist panel, Fig 5C; for current response to 100 μM nicotine: co-injected: H. contortus RIC-3
Experimental: as §1, §2, §3, §4

Bma-ACR-16 = assay type: cell-based, Brugia malayi; settings: co-injected: H. contortus RIC-3
Experimental: as §1, §2, §3, §4

C. elegans N-AChR = system: C. elegans N-AChR; set-up: method as in Charvet et al., 2018 [40]; settings: accessory protein Ric-3; ref Charvet et al., 2018 [40]; read-out: EC50 μM NIC; cited from earlier work
N. americanus N-AChR = settings: accessory protein Ric-3; ref [33]; read-out: EC50 μM NIC; cited from earlier work
A celanicum N-AChR = settings: accessory protein Ric-3; ref [33]; read-out: EC50 μM NIC; cited from earlier work
P. equorum N-AChR = settings: accessory protein Ric-3; ref [40]; read-out: EC50 μM NIC; cited from earlier work
[1] = biological target: Asu-ACR-16-bmaICL chimera (Ascaris suum; Brugia malayi, UniProt A0A4E9FSR7+F1KYJ9); assay type: cell-based, A. suum (B. malayi ICL); settings: compared to Asu-ACR-16 profile, S3D Fig
Experimental: B. malayi acr-16 and accessory proteins ric-3, unc-50, unc-74 and molo-1 were cloned from adult female B. malayi cDNA received as a gift from Dr. T. Geary using the primers described in S1 Table. B. malayi eat-18 was prepared from two overlapping oligonucleotide primers. Other subunits were synthesized from their predicted genome sequence (Gene Universal, USA) (S2 Table). […] All sequences were cloned into the pTD2 oocyte expression vector. Asu-ACR-16 and Tzc-ACR-16 chimeras were constructed using appropriate restriction enzymes, reciprocal exchange through ligation and confirmed by sequencing (McLab, USA).
as §1, §2
All drugs were dissolved in recording solution (NaCl 100 mM, KCl 2.5 mM, CaCl2 1 mM, HEPES 5 mM, pH 7.3) to a stock concentration of 10 mM and diluted to their final recording concentrations. […]
Oocytes were placed individually in an RC3Z chamber (Harvard Apparatus, USA) submerged in recording solution (NaCl 100 mM, KCl 2.5 mM, CaCl2 1 mM, HEPES 5 mM, pH 7.3). […] Ligand solutions were applied to the oocytes with an approximate flow rate of 1.2 m/s and current responses measured. […] Data was analyzed using Clampex 9.2 (Axon Instruments, USA) and statistical analysis and graphs produced in Prism (GraphPad version 9.1). […]

Tzc-ACR-16, sequence (A0A158RD20 entry or part of it): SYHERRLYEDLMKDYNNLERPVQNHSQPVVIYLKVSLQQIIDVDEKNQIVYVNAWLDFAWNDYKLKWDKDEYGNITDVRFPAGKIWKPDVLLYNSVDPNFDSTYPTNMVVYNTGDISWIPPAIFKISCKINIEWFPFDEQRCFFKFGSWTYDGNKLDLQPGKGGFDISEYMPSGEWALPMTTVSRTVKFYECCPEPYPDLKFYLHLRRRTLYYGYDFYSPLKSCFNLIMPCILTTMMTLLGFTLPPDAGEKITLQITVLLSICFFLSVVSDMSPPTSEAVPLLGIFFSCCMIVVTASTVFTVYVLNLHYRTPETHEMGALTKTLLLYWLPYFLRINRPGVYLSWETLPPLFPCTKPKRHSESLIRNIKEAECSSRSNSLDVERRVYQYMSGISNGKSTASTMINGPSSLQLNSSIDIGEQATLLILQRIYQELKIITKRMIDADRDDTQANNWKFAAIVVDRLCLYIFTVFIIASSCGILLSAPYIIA
Dme-ACR-16, sequence (A0A0N4U0T6 entry or part of it): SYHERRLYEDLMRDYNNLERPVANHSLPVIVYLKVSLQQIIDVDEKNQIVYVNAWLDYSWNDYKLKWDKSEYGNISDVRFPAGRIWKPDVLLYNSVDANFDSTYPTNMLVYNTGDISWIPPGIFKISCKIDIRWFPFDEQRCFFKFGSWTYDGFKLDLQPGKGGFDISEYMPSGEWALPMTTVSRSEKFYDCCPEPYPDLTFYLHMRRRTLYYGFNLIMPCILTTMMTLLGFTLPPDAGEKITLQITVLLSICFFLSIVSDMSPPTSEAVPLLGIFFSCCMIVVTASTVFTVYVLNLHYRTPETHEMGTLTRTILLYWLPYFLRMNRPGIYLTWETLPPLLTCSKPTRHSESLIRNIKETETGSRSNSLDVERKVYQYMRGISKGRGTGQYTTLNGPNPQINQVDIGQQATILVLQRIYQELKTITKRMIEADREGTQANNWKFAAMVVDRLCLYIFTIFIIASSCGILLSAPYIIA

| SMILES | response to 100 μM ligand relative to 100 μM ACh (in words) (Gpu-ACR-16) | response to 100 μM ligand relative to 100 μM ACh (in words) (Asu-ACR-16; agonist panel, Fig 5A) | response to 100 μM ligand relative to 100 μM ACh (in words) (Dme-ACR-16; agonist panel, Fig 5B) | response to 100 μM ligand relative to 100 μM ACh (in words) (Tzc-ACR-16; agonist panel, Fig 5D) | also measured |
| --- | --- | --- | --- | --- | --- |
| CN1CCC[C@H]1c1cccnc1 [NIC, (-)-nicotine hydrogen tartrate] | large response |  |  |  | EC50 (Asu-ACR-16): 5.1 µM; current response to 100 μM nicotine (Asu-ACR-16): 2067 ± 74 nA and 2000–2200 nA; response to 100 μM ligand relative to 100 μM ACh (in words) (Asu-ACR-16): large response; EC50 (Dme-ACR-16): 3.8 µM; current response to 100 μM nicotine (Dme-ACR-16): 2025 ± 81 nA and 2000–2200 nA; response to 100 μM ligand relative to 100 μM ACh (in words) (Dme-ACR-16): large response; EC50 (Tzc-ACR-16): 4.9 µM; current response to 100 μM nicotine (Tzc-ACR-16): 481 ± 45 nA and 400–600 nA; response to 100 μM ligand relative to 100 μM ACh (in words) (Tzc-ACR-16): large response; current response to 100 μM nicotine (Gpu-ACR-16): ~ 1400 nA; current response to 100 μM nicotine (Gpu-ACR-16; listed as nicotine): 1231 ± 98 nA; EC50 (Gpu-ACR-16; concentration-response 0.3-300 μM, normalized to 300 μM, with 95% CI, read-out: EC50 NIC): 2.1 µM; current response to 100 μM nicotine (Bma-ACR-16): 0 ± 0 nA and no measurable current; EC50 (C. elegans N-AChR): 15.1 ± 1.3 µM; EC50 (N. americanus N-AChR): 598 ± 59.1 µM; EC50 (A celanicum N-AChR): 24.4 ± 2.89 µM; EC50 (P. equorum N-AChR): 2.9 ± 0.5 µM |
| CN1CCCN=C1/C=C/c1cccc(O)c1 [OXA, oxantel] | smaller response | smaller response | smaller response | smaller response |  |
| C[N+](C)(C)CC(=O)O [BET, betaine] | No response | No response | No response | No response |  |
| NCCc1ccc(O)c(O)c1 [DA, dopamine] | No response | No response | No response | No response |  |
| C[N+](C)(CCOc1ccccc1)Cc1ccccc1 [BEPH, bephenium] | No response | No response | No response | No response |  |
| C[N+]1(C)CCN(c2ccccc2)CC1 [DMPP, dimethylphenylpiperazinium] | smaller response | smaller response | smaller response | smaller response | response to 100 μM ligand relative to acetylcholine (in words) [1]: higher responses |
| NC[C@H](O)c1ccc(O)c(O)c1 [NOR, norepinephrine] | No response | No response | No response | No response |  |
| CNC[C@H](O)c1ccc(O)c(O)c1 [EPI, epinephrine] | No response |  |  |  | response to 100 μM ligand relative to 100 μM ACh (in words) (Asu-ACR-16): No response; response to 100 μM ligand relative to 100 μM ACh (in words) (Dme-ACR-16): No response; response to 100 μM ligand relative to 100 μM ACh (in words) (Tzc-ACR-16): No response |
| Cc1ccsc1/C=C/C1=NCCCN1C [MOR, morantel] | minimal response | minimal response | minimal response | minimal response |  |
| NCCc1ccc(O)cc1 [TYR, tyramine] | No response | No response | No response | No response |  |
| CN1CCCN=C1/C=C/c1cccs1 [PYR, pyrantel] | minimal response | minimal response | minimal response | minimal response |  |
| c1ccc([C@H]2CN3CCSC3=N2)cc1 [LEV, (-)-tetramisole hydrochloride] | No response | No response | No response | No response |  |
